Measurements as given in PubChem BioAssay (NCI).
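Following 48 hours of exposure in 96-well plates, responses at five concentrations were used to interpolate endpoints linearly. GI50 is the concentration that inhibits growth by half. TGI is the concentration that stops growth completely.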

Columns and labels:
Assay in all cases: NCI tumour cell line growth inhibition, 48 h; in the data active = GI50 below about 0.43 µM; inactive = the rest
K-562 leukemia = test system: K-562 leukemia
EKVX NSCLC = test system: EKVX NSCLC
COLO 205 colon = test system: COLO 205 colon
HT29 colon = test system: HT29 colon
TK-10 renal = test system: TK-10 renal
NCI/ADR-RES ovarian = test system: NCI/ADR-RES ovarian
SK-OV-3 ovarian = test system: SK-OV-3 ovarian
HCT-116 colon = test system: HCT-116 colon
T-47D breast = test system: T-47D breast
SF-295 CNS = test system: SF-295 CNS
MALME-3M melanoma = test system: MALME-3M melanoma
MDA-N = test system: MDA-N
SF-268 CNS = test system: SF-268 CNS
CAKI-1 renal = test system: CAKI-1 renal
SK-MEL-28 melanoma = test system: SK-MEL-28 melanoma
M14 melanoma = test system: M14 melanoma
NCI-H460 lung = test system: NCI-H460 lung
UO-31 renal = test system: UO-31 renal
RPMI-8226 leukemia = test system: RPMI-8226 leukemia
HOP-92 NSCLC = test system: HOP-92 NSCLC
IGROV1 ovarian = test system: IGROV1 ovarian
DU-145 prostate = test system: DU-145 prostate
U251 CNS = test system: U251 CNS
HCT-15 colon = test system: HCT-15 colon
786-0 renal = test system: 786-0 renal
MCF7 breast = test system: MCF7 breast
SNB-19 CNS = test system: SNB-19 CNS
SK-MEL-5 melanoma = test system: SK-MEL-5 melanoma
HOP-62 NSCLC = test system: HOP-62 NSCLC
SNB-75 CNS = test system: SNB-75 CNS
SR leukemia = test system: SR leukemia
HS 578T breast = test system: HS 578T breast
RXF 393 renal = test system: RXF 393 renal
KM12 colon = test system: KM12 colon
OVCAR-5 ovarian = test system: OVCAR-5 ovarian
A549 NSCLC = test system: A549 NSCLC
A498 renal = test system: A498 renal
CCRF-CEM leukemia = test system: CCRF-CEM leukemia
NCI-H23 lung = test system: NCI-H23 lung
OVCAR-4 ovarian = test system: OVCAR-4 ovarian
SW-620 colon = test system: SW-620 colon
ACHN renal = test system: ACHN renal
UACC-257 melanoma = test system: UACC-257 melanoma
HL-60(TB) leukemia = test system: HL-60(TB) leukemia
HCC-2998 colon = test system: HCC-2998 colon
OVCAR-8 ovarian = test system: OVCAR-8 ovarian
MOLT-4 leukemia = test system: MOLT-4 leukemia
MDA-MB-435 = test system: MDA-MB-435
SK-MEL-2 melanoma = test system: SK-MEL-2 melanoma
PC-3 prostate = test system: PC-3 prostate
SN12C renal = test system: SN12C renal
SF-539 CNS = test system: SF-539 CNS
NCI-H226 lung = test system: NCI-H226 lung
NCI-H522 lung = test system: NCI-H522 lung
LOX IMVI melanoma = test system: LOX IMVI melanoma
MDA-MB-231 breast = test system: MDA-MB-231 breast
OVCAR-3 ovarian = test system: OVCAR-3 ovarian
BT-549 breast = test system: BT-549 breast
UACC-62 melanoma = test system: UACC-62 melanoma

Cc1c(NC(=O)CCCl)c(=O)oc2c(C)c3occc(=O)c3cc12
76.2 µM: TGI (A498 renal)
> 100 µM: TGI (K-562 leukemia) | TGI (EKVX NSCLC) | TGI (COLO 205 colon) | TGI (HT29 colon) | TGI (TK-10 renal) | TGI (NCI/ADR-RES ovarian) | TGI (SK-OV-3 ovarian) | TGI (HCT-116 colon) | TGI (T-47D breast) | TGI (SF-295 CNS) | TGI (MALME-3M melanoma) | TGI (MDA-N) | TGI (SF-268 CNS) | TGI (CAKI-1 renal) | TGI (SK-MEL-28 melanoma) | TGI (M14 melanoma) | TGI (NCI-H460 lung) | TGI (UO-31 renal) | TGI (RPMI-8226 leukemia) | TGI (HOP-92 NSCLC) | TGI (IGROV1 ovarian) | TGI (DU-145 prostate) | TGI (U251 CNS) | TGI (HCT-15 colon) | TGI (786-0 renal) | TGI (MCF7 breast) | TGI (SNB-19 CNS) | TGI (SK-MEL-5 melanoma) | TGI (HOP-62 NSCLC) | TGI (SNB-75 CNS) | TGI (SR leukemia) | TGI (HS 578T breast) | TGI (RXF 393 renal) | TGI (KM12 colon) | TGI (OVCAR-5 ovarian) | TGI (A549 NSCLC) | TGI (CCRF-CEM leukemia) | TGI (NCI-H23 lung) | TGI (OVCAR-4 ovarian) | TGI (SW-620 colon) | TGI (ACHN renal) | TGI (UACC-257 melanoma) | TGI (HL-60(TB) leukemia) | TGI (HCC-2998 colon) | TGI (OVCAR-8 ovarian) | TGI (MOLT-4 leukemia)

S=C(Nc1ccc(-c2nc3ccccc3s2)cc1)Nc1ccccn1
45.7 µM: TGI (CAKI-1 renal)
> 95.5 µM: TGI (T-47D breast)
60.9 µM: TGI (M14 melanoma)
57.3 µM: TGI (UACC-62 melanoma)
42.3 µM: TGI (COLO 205 colon)
> 61.3 µM: TGI (NCI-H522 lung)
> 86.7 µM: TGI (MOLT-4 leukemia)
> 71.6 µM: TGI (HCT-15 colon)
66.3 µM: TGI (SF-295 CNS)
36.2 µM: TGI (SK-MEL-5 melanoma)
> 53.9 µM: TGI (OVCAR-3 ovarian)
63.6 µM: TGI (SN12C renal)
> 78.1 µM: TGI (IGROV1 ovarian)
> 81.4 µM: TGI (OVCAR-5 ovarian)
> 51.2 µM: TGI (SNB-75 CNS)
73.9 µM: TGI (MALME-3M melanoma)
97.2 µM: TGI (MDA-MB-435)
> 74.5 µM: TGI (RXF 393 renal)
39.4 µM: TGI (LOX IMVI melanoma)
> 100 µM: TGI (K-562 leukemia) | TGI (SK-OV-3 ovarian) | TGI (SF-268 CNS) | TGI (NCI-H460 lung) | TGI (RPMI-8226 leukemia) | TGI (SF-539 CNS) | TGI (DU-145 prostate) | TGI (U251 CNS) | TGI (MCF7 breast) | TGI (SNB-19 CNS) | TGI (HOP-62 NSCLC) | TGI (A549 NSCLC) | TGI (CCRF-CEM leukemia) | TGI (OVCAR-4 ovarian) | TGI (SW-620 colon) | TGI (BT-549 breast) | TGI (HL-60(TB) leukemia)
59.2 µM: TGI (HS 578T breast)
55.5 µM: TGI (HCT-116 colon)
> 70.8 µM: TGI (KM12 colon) | TGI (ACHN renal)
48.3 µM: TGI (MDA-MB-231 breast)
> 73.9 µM: TGI (OVCAR-8 ovarian)
57.4 µM: TGI (SR leukemia)
> 72 µM: TGI (UACC-257 melanoma)
inactive: GI50 (K-562 leukemia) 27.6 µM | GI50 (EKVX NSCLC) 12.2 µM | GI50 (MDA-MB-435) 28.4 µM | GI50 (SK-MEL-2 melanoma) 22.7 µM | GI50 (COLO 205 colon) 18.9 µM | GI50 (HT29 colon) 28.3 µM | GI50 (PC-3 prostate) 23.6 µM | GI50 (TK-10 renal) 24.1 µM | GI50 (SN12C renal) 22.9 µM | GI50 (NCI/ADR-RES ovarian) 24.6 µM | GI50 (SK-OV-3 ovarian) 59.7 µM | GI50 (HCT-116 colon) 21.5 µM | GI50 (T-47D breast) 23.6 µM | GI50 (SF-295 CNS) 24.5 µM | GI50 (MALME-3M melanoma) 28.6 µM | GI50 (SF-268 CNS) 46.6 µM | GI50 (CAKI-1 renal) 17.3 µM | GI50 (SK-MEL-28 melanoma) 35.3 µM | GI50 (M14 melanoma) 25.2 µM | GI50 (NCI-H460 lung) 41.2 µM | GI50 (UO-31 renal) 19.6 µM | GI50 (RPMI-8226 leukemia) 33.8 µM | GI50 (SF-539 CNS) 37.8 µM | GI50 (HOP-92 NSCLC) 16.7 µM | GI50 (IGROV1 ovarian) 29.8 µM | GI50 (NCI-H226 lung) 26.4 µM | GI50 (NCI-H522 lung) 24.7 µM | GI50 (DU-145 prostate) 28.5 µM | GI50 (U251 CNS) 27.9 µM | GI50 (LOX IMVI melanoma) 18.2 µM | GI50 (MDA-MB-231 breast) 16.6 µM | GI50 (HCT-15 colon) 27.4 µM | GI50 (786-0 renal) 24.7 µM | GI50 (MCF7 breast) > 100 µM | GI50 (SNB-19 CNS) 36.1 µM | GI50 (SK-MEL-5 melanoma) 17.2 µM | GI50 (HOP-62 NSCLC) 44.4 µM | GI50 (SNB-75 CNS) 12 µM | GI50 (SR leukemia) 26.6 µM | GI50 (HS 578T breast) 21.5 µM | GI50 (RXF 393 renal) 33.1 µM | GI50 (KM12 colon) 21.9 µM | GI50 (OVCAR-5 ovarian) > 52.8 µM | GI50 (A549 NSCLC) 27 µM | GI50 (OVCAR-3 ovarian) 18.7 µM | GI50 (A498 renal) 19.8 µM | GI50 (CCRF-CEM leukemia) 25.5 µM | GI50 (NCI-H23 lung) 25.7 µM | GI50 (OVCAR-4 ovarian) 37 µM | GI50 (SW-620 colon) 40.1 µM | GI50 (BT-549 breast) 14.9 µM | GI50 (ACHN renal) 26.3 µM | GI50 (UACC-257 melanoma) 31.8 µM | GI50 (UACC-62 melanoma) 21.4 µM | GI50 (HL-60(TB) leukemia) 30.7 µM | GI50 (HCC-2998 colon) 21.9 µM | GI50 (OVCAR-8 ovarian) 32.6 µM | GI50 (MOLT-4 leukemia) 18.8 µM
66.6 µM: TGI (NCI/ADR-RES ovarian)
> 71.7 µM: TGI (PC-3 prostate)
44.7 µM: TGI (A498 renal)
70.4 µM: TGI (786-0 renal)
50.3 µM: TGI (SK-MEL-2 melanoma)
> 68.9 µM: TGI (UO-31 renal)
> 50.1 µM: TGI (EKVX NSCLC)
70.2 µM: TGI (TK-10 renal)
> 80.4 µM: TGI (HT29 colon)
60.2 µM: TGI (HCC-2998 colon)
64.1 µM: TGI (HOP-92 NSCLC)
> 95.4 µM: TGI (SK-MEL-28 melanoma)
70.6 µM: TGI (NCI-H23 lung)
> 76.2 µM: TGI (NCI-H226 lung)
